Experimental data taken from US9962398B2, “Sulfonamide compounds for inhibition of metastatic tumor growth” (Welichem Biotech Inc., priority 2010, dated 2018).
Read-outs that look alike come from different tables or passages of the source.

Legend:
[1] = system: MDA-MB-231 LM2-4Luc+ cells; conditions: in vivo
Source text: For studies involving CAIX depletion, 1×10^7 MDA-MB-231 cells suspended in a 50% Matrigel/PBS solution were implanted subcutaneously in 6-8 week-old female NOD.CB17-prkdc^scid/J mice. […] Therapy was initiated when the tumors reached 200 mm^3. For both models, tumor growth was monitored by caliper measurement.
The initiation and termination of inhibitor treatment is indicated. n=8/group. *P<0.03, **P<0.001.

[2] = system: MDA-MB-231 LM2-4luc+ tumors; assay: ESA+ cancer stem cell population in orthotopic xenograft tumors (FACS); assay type: in vivo, human; conditions: NOD/SCID mice, 38 mg/kg daily i.p., vs vehicle-treated tumors
Source text: MDA-MB-231 LM2-4^luc+ were implanted orthotopically into NOD/SCID mice. […] (A) Primary tumors were removed, dissociated and ESA+ cell population assessed by FACS analysis. […] (B) Data shown are the mean changes in ESA+ cells±SEM, from 3 mice. **P<0.0224.

4T1 mammary tumor cells = assay: Experimental metastasis assay, intravenous 4T1 cells, bioluminescence; assay type: in vivo, mouse; conditions: tail vein 4T1 cells, BALB/c mice, daily i.p. for 5 days, imaged 24 h after final dose
Experimental: For studies involving genetic depletion of CAIX, 4T1 or 67NR cells (5×10^5) were injected directly into the tail vein of 7-9 week-old female BALB/c mice. Mice were imaged once per week to follow the growth of metastases. Mice were euthanized 20 days post-injection and lungs were resected for further analysis. Tumor burden in the lung was quantified by manually counting nodules visible on the lung surface. For studies using sulphonamide inhibitors, 4T1 cells (1-5×10^5) were injected as described above (Pacchiano et al, (2011) J Med Chem 54:1896-1902).
Animals were treated 24 hours post inoculation of cells. Three doses were administered by i.p. injection over 6 days and the mice were imaged 24 hours following the third dose of inhibitor. […] Quantification of tumor-derived bioluminescence is shown in 12C. Regions of interest were positioned around metastatic foci and total flux (photons/sec) at the mouse surface was calculated. Data are reported as the mean±s.e.m. N=4 per group. *P<0.05.
4T1 cells were injected directly into the tail vein of BALB/c mice. […] Vehicle and inhibitor were administered by i.p. injection. Shown are representative images of tumor-cell derived bioluminescence in control and inhibitor-treated animals.

MDA-231 LM2-4 Luc+ cells = assay: 3D Matrigel invasion assay in hypoxia; assay type: cell-based, human; conditions: 4 days in hypoxia
Experimental: A 3D “on-top” matrigel culture assay was performed as described previously (Lee et al, (2007) Nat Methods 4:359-365). […] Cells were allowed to attach for 45 minutes with side-to-side agitation every 10-15 minutes to prevent clumping of cells in the center of the well. An additional 100 μl/well media containing 10% matrigel was added to the cells and cultures were incubated in hypoxia for 4 days. Images were acquired and cultures were fixed for TUNEL using the “whole culture fixation” methodology outlined in Lee et al, (2007) Nat Methods 4:359-365).
Treatment with novel sulfonamide inhibitors of CAIX attenuates hypoxia-induced invasion of human breast cancer cells grown in 3D Matrigel™ cultures (FIG. 16). Cells were cultured in 3D “on-top” Matrigel™ assays for 4 days in hypoxia in the presence of inhibitors. DMSO-treated cell cultures served as controls. The percentage concentration of DMSO and molar concentration of inhibitors are indicated. Representative phase contrast images are shown.

hCA XII = hCA XII (Homo sapiens (Human), UniProt O43570); conditions: read-out: Ki (nM) hCA XII; Table 3
hCA II = hCA II (Homo sapiens (Human), UniProt P00918); conditions: read-out: Ki (nM) hCA II; Table 3
hCA IX [3] = target: T1, hCA IX (Homo sapiens (Human), UniProt Q16790); conditions: read-out: Ki (nM) hCA IX; Table 3
hCA IX [4] = target: T1, hCA IX; assay: biochemical

Sequence of hCA XII (O43570 25-354): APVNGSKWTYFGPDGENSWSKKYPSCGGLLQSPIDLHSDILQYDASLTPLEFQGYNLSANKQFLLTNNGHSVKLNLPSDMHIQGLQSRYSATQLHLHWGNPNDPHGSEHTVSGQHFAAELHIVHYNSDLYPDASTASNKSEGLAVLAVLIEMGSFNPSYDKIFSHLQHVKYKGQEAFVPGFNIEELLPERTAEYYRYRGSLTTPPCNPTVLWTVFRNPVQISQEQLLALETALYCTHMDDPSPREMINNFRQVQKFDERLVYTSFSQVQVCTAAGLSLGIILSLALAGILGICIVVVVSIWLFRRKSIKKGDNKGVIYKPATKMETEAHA

For `NS(=O)(=O)c1ccc(NC(=O)Nc2ccc(F)cc2)cc1` [MST-104, 4-{[(4′-Fluorophenyl)carbamoyl]amino}benzenesulfonamide], the tumor growth [1] was “significant, dose-dependent inhibition of tumor growth”, the “ESA+ cell population” value [2] was “significantly reduced ESA+ cell population” and the “formation of metastases (tumor-derived bioluminescence)” value (4T1 mammary tumor cells) was “statistically significant decrease in the formation of metastases”. For the same compound, the hypoxia-induced invasion (MDA-231 LM2-4 Luc+ cells) was “inhibit invasion”.
For `NS(=O)(=O)c1ccc(NC(=O)Nc2cccc(Cl)c2)cc1` [MST-143, 4-(3-(3′-chlorophenyl)ureido)benzenesulfonamide], the Ki (hCA XII) was 8.5 nM, the Ki (hCA II) was 10 nM and the Ki (hCA IX [3]) was 8.4 nM.
Compound `NS(=O)(=O)c1cccc(NC(=O)Nc2c(F)c(F)c(F)c(F)c2F)c1` [MST-133, 3-(3-(Perfluorophenyl)ureido)benzenesulfonamide] has a Ki (hCA IX [4]) of 4.2 nM.
